From the supplement of paper PMC7840683

Tested on: HepaRG
Assay: LDH release cytotoxicity, % of total lysis control; higher = more cytotoxic
Settings: 48 h
How it was run: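 Single-lot HepaRG cells on collagen I-coated 96-well plates were exposed for 48 h in duplicate, in serum-free induction medium with 0.5% DMSO, to eight-point half-log series (test chemicals top 100 µM). Total lysis wells received 0.1% Triton X, and LDH leakage into 50 µL spent medium was read as resorufin fluorescence (CytoTox-ONE, Tecan Safire). Percent cytotoxicity was normalized to on-plate vehicle and total lysis controls and averaged over the duplicates.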

CC(=O)C1(O)CCC2C3CCC4=CC(=O)CCC4(C)C3CCC21C (stereo not drawn) [17alpha-Hydroxyprogesterone]
Settings	LDH release cytotoxicity [%]
0.03162 µM	-0.419
0.1 µM	-1.4
0.3162278 µM	-2.18
1 µM	-1.25
3.16228 µM	-0.766
10 µM	0.609
31.6228 µM	-0.397
100 µM	0.684

CC12CCC3c4ccc(O)cc4CCC3C1CCC2O (stereo not drawn) [17beta-Estradiol]
Settings	LDH release cytotoxicity [%]
0.01581 µM	-0.962
0.05 µM	-1.17
0.1581139 µM	-1.03
0.5 µM	-1.37
1.5811388 µM	-1.1
5 µM	-0.844
15.8114 µM	-0.113
50 µM	6.2

CC12C=CC3=C4CCC(=O)C=C4CCC3C1CCC2O (stereo not drawn) [17beta-Trenbolone]
Settings	LDH release cytotoxicity [%]
0.03162 µM	-1.81
0.1 µM	-1.96
0.3162278 µM	-2.23
1 µM	-1.89
3.16228 µM	-1.55
10 µM	-1.02
31.6228 µM	-1.05
100 µM	0.211

CC(C)=CCC/C(C)=C\CO [(2Z)-3,7-Dimethylocta-2,6-dien-1-ol]
Settings	LDH release cytotoxicity [%]
0.03162 µM	-0.521
0.1 µM	-0.112
0.3162278 µM	0.637
1 µM	0.207
3.16228 µM	0.25
10 µM	0.588
31.6228 µM	0.393
100 µM	1.1

C/C=C/c1ccc(OC)cc1 [(E)-Anethole]
Settings	LDH release cytotoxicity [%]
0.03162 µM	-0.814
0.1 µM	-0.865
0.3162278 µM	-1.3
1 µM	-0.855
3.16228 µM	-1.25
10 µM	-0.44
31.6228 µM	-0.316
100 µM	1.16

O=C(N[C@H]1CN2CCC1CC2)c1cc2ccoc2cn1 [(R)-N-(Quinuclidin-3-yl)furo(2,3-C)pyridine-5-carboxamide]
Settings	LDH release cytotoxicity [%]
0.03162 µM	-0.025
0.1 µM	1.01
0.3162278 µM	0.216
1 µM	0.437
3.16228 µM	1.24
10 µM	0.814
31.6228 µM	1.28
100 µM	1.77

O=C(NC(=O)c1cc(F)c(F)cc1Cl)Nc1cc(F)ccc1N1CCC(C(=O)O)CC1 [AVE2865]
Settings	LDH release cytotoxicity [%]
0.01581 µM	0.296
0.05 µM	-1.08
0.1581139 µM	-1.31
0.5 µM	-0.965
1.5811388 µM	-1.15
5 µM	-0.168
15.8114 µM	0.386
50 µM	0.68

O=C(O)c1ccc2c(c1)nc(C(=O)NC1CCN(C3CC3)CC1)n2Cc1cc(-c2ccc(Cl)s2)on1 [AVE3247]
Settings	LDH release cytotoxicity [%]
0.0075895 µM	-0.875
0.024 µM	-2.04
0.0758947 µM	-2.37
0.24 µM	-2.63
0.758947 µM	-2.23
2.4 µM	-1.94
7.58947 µM	-1.68
24 µM	-0.941

CCC(NC(=O)c1cc(F)ccc1NS(=O)(=O)c1cccc2cccnc12)c1ccccc1 (stereo unspecified) [AVE3295]
Settings	LDH release cytotoxicity [%]
0.0301998 µM	-1.81
0.0955 µM	-1.66
0.301997 µM	-1.7
0.955 µM	-1.55
3.01998 µM	-1.75
9.55 µM	-2.12
30.199752 µM	-1.2
95.5 µM	4.69

NCc1cccc(C2CCN(C(=O)c3ccc(C#Cc4ccccc4F)o3)CC2)c1 [AVE5638]
Settings	LDH release cytotoxicity [%]
0.03162 µM	0.161
0.1 µM	0.0623
0.3162278 µM	0.0711
1 µM	0.0437
3.16228 µM	0.441
10 µM	0.359
31.6228 µM	3.69
100 µM	65.1

CCOC(=O)OC(C)OC(=O)c1ccc2c(c1)cc(C(=O)NC1CCN(C(C)C)CC1)n2Cc1cc(-c2ccc(Cl)s2)on1 (stereo unspecified) [AVE6324]
Settings	LDH release cytotoxicity [%]
0.02988 µM	-0.39
0.0945 µM	-0.573
0.298835 µM	-0.553
0.945 µM	-1.09
2.98835 µM	-0.186
9.45 µM	1.15
29.8835 µM	1.55
94.5 µM	48.4

CN1CCN(Cc2cc(-c3ccc4nc(O)oc4c3)co2)C(c2ccc(F)cc2)C1 (stereo unspecified) [AVE8488]
Settings	LDH release cytotoxicity [%]
0.03162 µM	-0.724
0.1 µM	-1.47
0.3162278 µM	-0.841
1 µM	-0.702
3.16228 µM	-1.52
10 µM	-0.46
31.6228 µM	0.998
100 µM	9.54

CCCOc1sc(C(=O)N2CCC(c3cc(CN)ccc3F)CC2)c(C)c1Br [AVE8923]
Settings	LDH release cytotoxicity [%]
0.002846 µM	0.846
0.009 µM	-1.04
0.02846 µM	-1.76
0.09 µM	-1.75
0.284605 µM	-1.48
0.9 µM	-1.21
2.84605 µM	-0.426
9 µM	-0.0454

O=C(O)c1ccccc1-n1cc(C(=O)O)c(=O)c2cc(Nc3c(F)cc(F)cc3Cl)c(Cl)cc21 [AVE9423]
Settings	LDH release cytotoxicity [%]
0.03162 µM	-1.33
0.1 µM	-1.38
0.3162278 µM	-2.06
1 µM	-2.38
3.16228 µM	-2.31
10 µM	-2.38
31.6228 µM	-1.42
100 µM	-1.52

CC[C@H](C)[C@H]1O[C@]2(C=C[C@@H]1C)C[C@@H]1C[C@@H](C/C=C(\C)[C@@H](O[C@H]3C[C@H](OC)[C@@H](O[C@H]4C[C@H](OC)[C@@H](O)[C@H](C)O4)[C@H](C)O3)[C@@H](C)/C=C/C=C3\CO[C@@H]4[C@H](O)C(C)=C[C@@H](C(=O)O1)[C@]34O)O2.CO[C@H]1C[C@H](O[C@H]2[C@H](C)O[C@@H](O[C@@H]3/C(C)=C/C[C@@H]4C[C@@H](C[C@]5(C=C[C@H](C)[C@@H](C(C)C)O5)O4)OC(=O)[C@@H]4C=C(C)[C@@H](O)[C@H]5OC/C(=C\C=C\[C@@H]3C)[C@]54O)C[C@@H]2OC)O[C@@H](C)[C@@H]1O [Abamectin]
Settings	LDH release cytotoxicity [%]
0.0191318 µM	-1.6
0.0605 µM	-0.607
0.191318 µM	-1.03
0.605 µM	-0.868
1.913178 µM	-1.21
6.05 µM	-1.13
19.1318 µM	12.3
60.5 µM	63.56

c1cc2c3c(cccc3c1)CC2 [Acenaphthene]
Settings	LDH release cytotoxicity [%]
0.03162 µM	-0.325
0.1 µM	-0.376
0.3162278 µM	0.475
1 µM	-0.576
3.16228 µM	-0.0334
10 µM	0.635
31.6228 µM	0.885
100 µM	1.86

C1=Cc2cccc3cccc1c23 [Acenaphthylene]
Settings	LDH release cytotoxicity [%]
0.031623 µM	-0.662
0.1 µM	-2.98
0.316228 µM	-2.7
1 µM	-2.28
3.16228 µM	-2.7
10 µM	-2.757
31.6228 µM	-1.56
100 µM	1
